According to US5011825A, “Peptides influencing diuresis and natriuresis, a process for their preparation, agents containing them, and their use” (Hoechst Aktiengesellschaft, priority 1986, dated 1991):
Where a SMILES comes first, the peptide text is derived from it. [ ]: non-standard residue; d: D form. The star is where a group is joined. Leu(ol) = CC(C)C[C@H](N)CO; code Z = not defined here; Cbz = O=C(OCc1ccccc1)*; OtBu = CC(C)(C)O*; tBu = CC(C)(C)*

System: rat
Experiment: Diuretic, natriuretic and kaliuretic action, Experimental Design 1 (anesthetized rats, continuous NaCl infusion, i.v. bolus)
Format: in vivo
Details: for Urine / K^+ / Na^+: dose 1 mg/kg rat i.v. bolus, collection period 90 min; for Urine: control 1.267; for K^+: control 29.5; for Na^+: control 65.2
Description: A. […]
Experimental Design 1: The rats were anesthetized with 0.1 ml of 10% strength thiobutabarbital sodium/100 g of body weight i.p. They received an NaCl infusion from 60 min before administration of the substance and continuing during the experiment (2.5 ml of a 0.9% strength NaCl solution .h^-1.0.1 kg^-1 body weight). The test substance was administered as an i.v. bolus in 0.5 ml of a 0.9% strength solution/100 g of body weight.

Compound | Urine [mL/kg] | K^+ [µmol/kg] | Na^+ [µmol/kg] | Type of action on diuresis, natriuresis and kaliuresis (in words) (judged from the data against control)
H-RIFRI-OH [H-Arg-Ile-Phe-Arg-Ile-OH] | 2.00 | 68.3 | 211.0 | 
Z-Arg-Ile-Trp-Arg-Ile-OMe ({code Z}-RIWRI-OMe; reading uncertain; also: printed as Z-Arg-Ile-Trp-Arg-Ile-OMe) | 1.16 | 46.2 | 152.5 | 
Cbz-RID(OtBu)RI-NH2 | 1.51 | 63.3 | 263.2 | 
H-RPVKV-OH [H-Arg-Pro-Val-Lys-Val-OH] | 0.91 | 28.2 | 155.7 | potassium-retaining natriuretics
H-RID(OtBu)R[Leu(ol)] | 1.55 | 64.2 | 180.8 | 
CC[C@H](C)[C@H](NC(=O)[C@H](CCCNC(=N)N)NC(=O)[C@@H](COC(C)(C)C)NC(=O)[C@@H](NC(=O)[C@@H](N)CCCNC(=N)N)[C@@H](C)CC)C(=O)O [H-Arg-Ile-D-Ser(tBu)-Arg-Ile-OH] (H-RI[dS](tBu)RI-OH) | 0.95 | 44.3 | 87.0 | 
